Assay results published in patent US6169181A, “Compounds useful to treat retroviral infections” (Pharmacia & Upjohn Company, priority 1998, dated 2001).
“And” between values parts separate entries of the source, which are not always exact repeats. Equal entries are not always repeated. Where two headings read alike, the source gives them in different places.

How the values were obtained:
[1] = target: T1, single chain tethered (tandem) HIV protease (HIV-1 M:B_HXB2R, UniProt P04585); assay: Tandem HIV protease assay; assay type: biochemical; settings: read-out: FITC KI; Table II; enzyme HIV1TANDEM
T1 construct: purified enzyme, FITC/biotin substrate assay
Procedure: In the enzyme inhibition assay described above, the sensitivity of Ki value determination is in part limited by the ability to continue to lower the enzyme concentration for compounds with high binding affinity. To prevent de-dimerization at low enzyme concentration, a tandemly linked enzyme is prepared in which the two monomers are covalently linked by an appropriate stretch of amino acid residues. Using the latter enzyme, the sensitivity of the inhibition assay is improved since much lower enzyme concentration can be utilized, as compared to the condition using the wild-type enzyme.
The starting inhibitor concentrations are determined based on preliminary enzyme inhibition screening results which estimate the expected potency of the inhibitor. Inhibitor concentrations are then prepared using the Biomek 1000 (Beckman) and the Quadra 96 (Tomtec). Substrate (biotinylated at the amino terminal arginine and fluorescently labeled with fluorescein at the carboxyl terminal lysine), inhibitor and the tandem enzyme are allowed to react in solution at pH 5.5 (buffers identical to those used with the native dimeric enzyme) in the dark for 96 hours. Streptavidin coated polystyrene beads are added to stop the reaction. The labeled cleavage product is separated from unreacted substrate via filtration. Residual fluorescence is quantitated with the Idexx SM2000 (Idexx) and the resulting data are analyzed using the NLLSF program.

HIV-1 protease [2] = target: T2, HIV-1 protease (Human immunodeficiency virus type 1 group M subtype B, UniProt P04585); assay: biochemical; settings: for inhibition at 0.123 µM / inhibition at 0.37 µM / inhibition at 1.1 µM / inhibition at 3.3 µM / inhibition at 10 µM / inhibition at 30 µM: read-out: Protease % Inhib
How it was run: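 A substrate biotinylated at the N-terminal arginine and FITC-labelled at the C-terminal lysine was incubated with HIV-1 protease (10 μl of 0.1 μM) and compound for 1 h in the dark at room temperature. Buffer was 0.1 M sodium acetate pH 5.5, 1.0 M NaCl, 0.05% NP-40. Labelled product was separated from substrate using streptavidin beads and filtration, and the fluorescence gave percent inhibition.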

HIV-1 protease [3] = target: T2, HIV-1 protease; assay: biochemical
How it was run: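 Biotinylated, FITC-labelled peptide substrate cleaved in 0.1 M sodium acetate pH 5.5, 1.0 M NaCl, 0.05% NP-40, room temperature. Filtered labelled product read by fluorescence; nonlinear least-squares fit.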

[4] = Table I, read-out: HIV Protease FITC Assay Ki

`CCC(C1=C(O)CC(CCc2ccccc2)(CCc2ccccc2)OC1=O)c1cccc(NS(=O)(=O)c2cc(C(F)(F)F)ccn2)c1` (single isomer, unassigned) [Example 290, 4-Trifluoromethyl-N-[3-(R or S)-[1-[4-hydroxy-2-oxo-6,6-di-phenethyl-5,6-dihydro-2H-pyran-3-yl]-propyl]-phenyl]-2-pyridinesulfonamide] gave a Ki [1] of 1.88 nM.

Work on `CC(C)(C)C(C1=C(O)CC(CCc2ccccc2)(CCc2ccccc2)OC1=O)c1cccc(NS(=O)(=O)c2ccc(C#N)cn2)c1` (single isomer, unassigned) [Example 359, N-[3-{1(R or S)-(4-Hydroxy-5,6-dihydro-2-oxo-6,6-bis(2-phenylethyl)-2H-pyran-3-yl)-2,2-dimethylpropyl}phenyl]-5-cyanopyridine-2-sulfonamide] yielded a Ki [1] of 16.4 nM.

For `CCC[C@@]1(CCc2ccccc2)CC(O)=C([C@@H](c2cccc(NS(=O)(=O)c3ccc(C#N)cn3)c2)C(C)(C)C)C(=O)O1` (single isomer, unassigned) [Example 302, 5-Cyano-N-[3(R or S)-(1-[5,6-dihydro-4-hydroxy-2-oxo-6(R or S)-(2-phenylethyl)-6-propyl-2H-pyran-3-yl]-2,2-dimethylpropyl)-phenyl]-2-pyridinesulfonamide], the Ki [1] was 1.87 nM and 3.6 nM.

With `CCCC1(CCC)CC(O)=C(C(CC)c2cccc(NS(=O)(=O)c3ccc(N)cn3)c2)C(=O)O1` (single isomer, unassigned) [Example 363, N-[3-{1(R or S)-(4-Hydroxy-5,6-dihydro-2-oxo-6,6-dipropyl-2H-pyran-3-yl)-propyl}phenyl]-5-aminopyridine-2-sulfonamide] the Ki [1] was 0.083 nM.

In the case of `CCCC1(CCC)CC(O)=C(C(c2cccc(NS(=O)(=O)c3ccc(N)cn3)c2)C(C)(C)C)C(=O)O1` (single isomer, unassigned) [Example 320, 5-Amino-N-[3(R or S)-(1-[5,6-dihydro-6,6-dipropyl-4-hydroxy-2-oxo-2H-pyran-3-yl]-2,2-dimethyl-propyl)phenyl]-2-pyridine sulfonamide], the Ki [1] is reported as 0.071 nM and 0.05 nM and 0.075 nM.

`CCC[C@@]1(CCc2ccc(F)cc2)CC(O)=C([C@H](CC)c2cccc(NS(=O)(=O)c3ccc(C#N)cn3)c2)C(=O)O1` (single isomer, unassigned) [Example 365, N-[3-{1(R or S)-(4-Hydroxy-5,6-dihydro-2-oxo-6(R or S)-(2-(4-fluorophenyl)ethyl)-6-propyl-2H-pyran-3-yl)propyl}phenyl]-5-cyanopyridine-2-sulfonamide] gave a Ki [1] of 0.023 nM.

For `CCCC1(CCc2ccccc2)CC(O)=C(C(c2cccc(NS(=O)(=O)c3ccc(C(F)(F)F)cn3)c2)C(C)(C)C)C(=O)O1` (single isomer, unassigned) [Example 295, 5-Trifluoromethyl-N-[3 (R or S)-[1-[5,6-dihydro-4-hydroxy-2-oxo-6(R or S)-(2-phenethyl)-6(R or S)-n-propyl-2H-pyran-3-yl]-2,2-dimethylpropyl]-phenyl]-2-pyridinesulfonamide], the Ki [1] was 0.071 nM.

`CCC(C1=C(O)CC(CCc2ccccc2)(CCc2ccccc2)OC1=O)c1cccc(NS(=O)(=O)c2cn(C)cn2)c1` (single isomer, unassigned) [Example 324, N-[3(R or S)-(1-[6,6-Bis(2-phenyl-ethyl)-5,6-dihydro-4-hydroxy-2-oxo-2H-pyran-3-yl]propyl)phenyl]-1-methyl-1H-imidazole-4-sulfonamide] gave a Ki [1] of 0.156 nM.

`CC(C)(C)C(C1=C(O)CC(CCc2ccccc2)(CCC(F)(F)F)OC1=O)c1cccc(NS(=O)(=O)c2ccc(C#N)cn2)c1` (single isomer, unassigned) [Example 272, 5-cyano-N-[3-(R or S)-[1-[5,6-dihydro-4-hydroxy-2-oxo-6-(2-phenethyl)-6-(R or S)-(3,3,3-trifluoropropyl)-2H-pyran-3-yl]-2,2-dimethylpropyl]phenyl]-2-pyridinesulfonamide] was tested, and the Ki [1] was 3.6 nM.

In the case of `CCC(C1=C(O)CC(CCc2ccccc2)(CCc2ccccc2)OC1=O)c1cccc(NS(=O)(=O)c2ccc(C#N)cn2)c1` (single isomer, unassigned) [Example 326, N-[3(R or S)-(1-[6,6-Bis(2-phenyl-ethyl)-5,6-dihydro-4-hydroxy-2-oxo-2H-pyran-3-yl]propyl)phenyl]-5-cyano-2-pyridinesulfonamide], the Ki [1] is reported as 0.029 nM.

Molecule `CCC(C1=C(O)CC(CCc2ccccc2)(CCc2ccccc2)OC1=O)c1cccc(NS(=O)(=O)c2ccc(C(F)(F)F)cn2)c1` (single isomer, unassigned) [Example 287, 5-Trifluoromethyl-N-[3-(R or S)-[1-[4-hydroxy-2-oxo-6,6-di-phenethyl-5,6-dihydro-2H-pyran-3-yl]-propyl]-phenyl]-2-pyridinesulfonamide] has a Ki [1] of 0.038 nM.

For `CCCC1(CCC)CC(O)=C(C(c2cccc(NS(=O)(=O)c3ccc(C#N)cn3)c2)C(C)(C)C)C(=O)O1` (single isomer, unassigned) [Example 322, 5-Cyano-N-[3(R or S)-(1-[5,6-dihydro-6,6-dipropyl-4-hydroxy-2-oxo-2H-pyran-3-yl]-2,2-dimethyl-propyl)phenyl]-2-pyridine-sulfonamide], the Ki [1] was 1.07 nM and 1.29 nM.

`CCC[C@@]1(CCc2ccc(F)cc2)CC(O)=C([C@H](CC)c2cccc(NS(=O)(=O)c3cn(C)cn3)c2)C(=O)O1` (single isomer, unassigned) [Example 368, N-[3-{1(R or S)-(4-Hydroxy-5,6-dihydro-2-oxo-6(R or S)-(2-(4-fluorophenyl)ethyl)-6-propyl-2H-pyran-3-yl)propyl}phenyl]-1-methyl-1H-imidazole-4-sulfonamide] gave a Ki [1] of 0.232 nM.

`CC[C@H](Cc1ccccc1)c1cc(O)c(C(c2cccc(NS(=O)(=O)c3ccccn3)c2)C2CC2)c(=O)o1` (single isomer, unassigned) [Example 141, N-(3-(R or S)-{Cyclopropyl-[6-(1-(R)-ethylphenethyl)-4-hydroxy-2-oxo-2H-pyran-3-yl]-methyl}-phenyl)-2-pyridinesulfonamide] was tested, and the inhibition at 0.123 µM (HIV-1 protease [2]; Table I, Dose 0.123 μM) was 78.7%, the inhibition at 0.37 µM (HIV-1 protease [2]; Table I, Dose 0.370 μM) was 88.7% and the inhibition at 1.1 µM (HIV-1 protease [2]; Table I, Dose 1.100 μM) was 92%. For the same molecule, the inhibition at 3.3 µM (HIV-1 protease [2]; Table I, Dose 3.300 μM) was 88.3%, the inhibition at 10 µM (HIV-1 protease [2]; Table I, Dose 10.000 μM) was 97.8% and the inhibition at 30 µM (HIV-1 protease [2]; Table I, Dose 30.000 μM) was 98.5%. For the same molecule, the Ki (HIV-1 protease [3]; [4]) was 1.4 nM.

`CCCC1(CCc2ccccc2)CC(O)=C(C(CC)c2cccc(NS(=O)(=O)c3ccc(C#N)cc3)c2)C(=O)O1` (stereo not drawn) [Example 40, 4-Cyano-N-[3-[1-(4-hydroxy-2-oxo-6-phenethyl-6-propyl-5,6-dihydro-2H-pyran-3-yl)-propyl]-phenyl]-benzenesulfonamide] was tested, and the inhibition at 0.123 µM (HIV-1 protease [2]; Table I, Dose 0.123 μM) was 59.6%, the inhibition at 0.37 µM (HIV-1 protease [2]; Table I, Dose 0.370 μM) was 102% and the inhibition at 1.1 µM (HIV-1 protease [2]; Table I, Dose 1.100 μM) was 98.7%. It also gave an inhibition at 3.3 µM (HIV-1 protease [2]; Table I, Dose 3.300 μM) of 105%, an inhibition at 10 µM (HIV-1 protease [2]; Table I, Dose 10.000 μM) of 88.7% and an inhibition at 30 µM (HIV-1 protease [2]; Table I, Dose 30.000 μM) of 72.7%. The Ki (HIV-1 protease [3]; [4]) was 10.8 nM.

`CCCC1(CCc2ccccc2)CC(O)=C(C(c2cccc(NS(=O)(=O)c3ccc(F)cc3)c2)C2CC2)C(=O)O1` (stereo not drawn) [Example 59] gave an inhibition at 0.123 µM (HIV-1 protease [2]; Table I, Dose 0.123 μM) of 76.7%, an inhibition at 0.37 µM (HIV-1 protease [2]; Table I, Dose 0.370 μM) of 90.5% and an inhibition at 1.1 µM (HIV-1 protease [2]; Table I, Dose 1.100 μM) of 102%. It also gave an inhibition at 3.3 µM (HIV-1 protease [2]; Table I, Dose 3.300 μM) of 99.9%, an inhibition at 10 µM (HIV-1 protease [2]; Table I, Dose 10.000 μM) of 105% and an inhibition at 30 µM (HIV-1 protease [2]; Table I, Dose 30.000 μM) of 102%. It also gave a Ki (HIV-1 protease [3]; [4]) of 3.5 nM.

With `CC[C@H](Cc1ccccc1)c1cc(O)c(C(c2cccc(NS(=O)(=O)c3ccccn3)c2)C2CC2)c(=O)o1` (single isomer, unassigned) [Example 142, N-(3-(R or S)-{Cyclopropyl-[6-(1-(R)-ethylphenethyl)-4-hydroxy-2-oxo-2H-pyran-3-yl]-methyl}-phenyl)-2-pyridinesulfonamide] the “PROTEASE % INHIB.” value (HIV-1 protease [2]; Table I, Dose 0.123 μM) was 78.01%, the “PROTEASE % INHIB.” value (HIV-1 protease [2]; Table I, Dose 0.370 μM) was 92.52% and the “PROTEASE % INHIB.” value (HIV-1 protease [2]; Table I, Dose 1.100 μM) was 106.64%. For the same molecule, the “PROTEASE % INHIB.” value (HIV-1 protease [2]; Table I, Dose 3.300 μM) was 105.15%, the “PROTEASE % INHIB.” value (HIV-1 protease [2]; Table I, Dose 10.000 μM) was 110.58% and the “PROTEASE % INHIB.” value (HIV-1 protease [2]; Table I, Dose 30.000 μM) was 106.77%. It also gave a Ki (HIV-1 protease [3]; [4]) of 1.6 nM.

For `Nc1ccc(S(=O)(=O)Nc2cccc(CC3=C(O)CC(CCc4ccccc4)(CCc4ccccc4)OC3=O)c2)nc1` [Example 354, N-[3-{1-(4-Hydroxy-5,6-dihydro-2-oxo-6,6-bis(2-phenylethyl)-2H-pyran-3-yl)methyl}phenyl]-5-aminopyridine-2-sulfonamide], the “PROTEASE % INHIB.” value (HIV-1 protease [2]; Table II, enzyme HIV-1, DOSE 0.123 (unit not given)) was under 10%, the “PROTEASE % INHIB.” value (HIV-1 protease [2]; Table II, enzyme HIV-1, DOSE 0.370 (unit not given)) was 10.37% and the “PROTEASE % INHIB.” value (HIV-1 protease [2]; Table II, enzyme HIV-1, DOSE 1.100 (unit not given)) was 26.79%. The “PROTEASE % INHIB.” value (HIV-1 protease [2]; Table II, enzyme HIV-1, DOSE 3.300 (unit not given)) was 46.1%, the “PROTEASE % INHIB.” value (HIV-1 protease [2]; Table II, enzyme HIV-1, DOSE 10.000 (unit not given)) was 54.97% and the “PROTEASE % INHIB.” value (HIV-1 protease [2]; Table II, enzyme HIV-1, DOSE 30.000 (unit not given)) was 54.5%. The Ki (HIV-1 protease [3]; Table II, enzyme HIV-1, read-out: FITC KI) was 665 nM.
